US9624208B2, “Benzoxazolinone compounds with selective activity in voltage-gated sodium channels” (Merck Sharp & Dohme Corp., priority 2012, dated 2017)

Legend:
[1] = target: T1, human Nav1.7 (Homo sapiens, UniProt Q15858); test: PatchXpress sodium current measurement, inactivated state block, Nav1.7; type: cell-based; conditions: channels stably expressed in HEK 293 cells, double-pulse protocol, 22° C., read-out: potency for the Nav 1.7 sodium ion channel (1.7=)
T1 construct: expressed in transfected cells
T1 sequence (Q15858 whole entry): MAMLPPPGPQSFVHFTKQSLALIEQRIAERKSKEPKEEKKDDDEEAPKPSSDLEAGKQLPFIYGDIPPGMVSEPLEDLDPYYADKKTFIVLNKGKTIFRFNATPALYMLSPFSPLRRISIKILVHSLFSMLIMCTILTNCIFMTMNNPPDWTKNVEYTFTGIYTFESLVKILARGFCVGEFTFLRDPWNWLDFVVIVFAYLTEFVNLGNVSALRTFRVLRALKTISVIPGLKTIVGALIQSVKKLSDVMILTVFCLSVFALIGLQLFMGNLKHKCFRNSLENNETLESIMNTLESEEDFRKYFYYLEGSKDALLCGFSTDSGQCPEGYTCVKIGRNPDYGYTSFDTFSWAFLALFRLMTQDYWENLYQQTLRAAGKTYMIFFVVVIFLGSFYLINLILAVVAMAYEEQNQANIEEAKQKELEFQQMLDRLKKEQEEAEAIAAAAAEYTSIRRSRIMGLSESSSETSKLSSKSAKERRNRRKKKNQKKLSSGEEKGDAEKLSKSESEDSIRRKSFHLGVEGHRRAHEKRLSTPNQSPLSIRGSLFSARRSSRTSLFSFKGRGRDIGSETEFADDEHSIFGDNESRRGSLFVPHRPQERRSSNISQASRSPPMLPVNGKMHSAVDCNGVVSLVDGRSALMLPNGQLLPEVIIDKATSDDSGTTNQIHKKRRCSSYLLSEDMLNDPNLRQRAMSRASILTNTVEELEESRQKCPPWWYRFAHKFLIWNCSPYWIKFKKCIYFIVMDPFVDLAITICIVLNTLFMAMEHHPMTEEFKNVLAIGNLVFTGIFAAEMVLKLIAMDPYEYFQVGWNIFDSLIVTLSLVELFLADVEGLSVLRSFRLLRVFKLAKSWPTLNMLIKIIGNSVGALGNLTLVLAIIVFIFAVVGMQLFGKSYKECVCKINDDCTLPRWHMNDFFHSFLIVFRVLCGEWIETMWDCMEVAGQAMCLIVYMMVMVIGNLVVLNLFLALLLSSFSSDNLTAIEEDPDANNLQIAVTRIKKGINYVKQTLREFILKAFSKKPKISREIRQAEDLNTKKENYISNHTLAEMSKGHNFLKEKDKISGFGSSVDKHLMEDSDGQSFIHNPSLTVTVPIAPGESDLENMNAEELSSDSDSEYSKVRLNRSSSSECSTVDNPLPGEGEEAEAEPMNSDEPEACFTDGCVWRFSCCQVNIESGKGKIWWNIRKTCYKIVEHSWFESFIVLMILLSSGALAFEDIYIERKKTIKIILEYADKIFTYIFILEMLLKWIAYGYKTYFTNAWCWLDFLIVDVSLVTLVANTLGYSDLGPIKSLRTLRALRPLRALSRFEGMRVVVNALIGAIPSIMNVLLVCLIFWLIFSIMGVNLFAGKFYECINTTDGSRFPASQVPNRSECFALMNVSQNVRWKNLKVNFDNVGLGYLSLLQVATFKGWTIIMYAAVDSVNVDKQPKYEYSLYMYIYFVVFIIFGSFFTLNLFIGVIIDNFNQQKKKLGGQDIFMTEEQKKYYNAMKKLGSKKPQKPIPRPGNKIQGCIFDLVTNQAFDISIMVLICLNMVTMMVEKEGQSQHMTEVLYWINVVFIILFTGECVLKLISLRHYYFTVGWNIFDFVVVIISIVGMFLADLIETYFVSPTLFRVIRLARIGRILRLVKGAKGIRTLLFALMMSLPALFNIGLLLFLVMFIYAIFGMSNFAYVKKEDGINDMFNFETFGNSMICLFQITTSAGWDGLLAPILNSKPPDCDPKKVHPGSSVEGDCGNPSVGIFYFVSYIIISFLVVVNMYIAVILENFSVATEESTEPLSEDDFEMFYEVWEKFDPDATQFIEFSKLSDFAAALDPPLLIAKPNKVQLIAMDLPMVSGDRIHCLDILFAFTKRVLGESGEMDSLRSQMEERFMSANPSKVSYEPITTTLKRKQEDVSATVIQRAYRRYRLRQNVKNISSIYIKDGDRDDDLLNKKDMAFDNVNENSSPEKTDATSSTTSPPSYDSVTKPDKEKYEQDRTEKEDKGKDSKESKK
Outline: (§1)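 HEK293 cells stably expressing channel; automated patch clamp at 22 °C, double-pulse protocol: hold 20 mV below V½ inactivation, 8000 ms prepulse 7 mV above V½, 2 ms step to −120 mV, 20 ms test pulse to −20 mV. CsF-based internal (pH 7.3), NMDG/40 mM NaCl external (pH 7.5). Rundown-corrected % inhibition (≥2 concentrations) fitted to Hill equation for IC50.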

[2] = target: T2, human Nav1.5 (Homo sapiens, UniProt Q14524); test: PatchXpress sodium current measurement, inactivated state block, Nav1.5; type: cell-based; conditions: determined by PatchXpress measurement, HEK 293 cells
T2 construct: expressed in transfected cells
T2 sequence (Q14524 whole entry): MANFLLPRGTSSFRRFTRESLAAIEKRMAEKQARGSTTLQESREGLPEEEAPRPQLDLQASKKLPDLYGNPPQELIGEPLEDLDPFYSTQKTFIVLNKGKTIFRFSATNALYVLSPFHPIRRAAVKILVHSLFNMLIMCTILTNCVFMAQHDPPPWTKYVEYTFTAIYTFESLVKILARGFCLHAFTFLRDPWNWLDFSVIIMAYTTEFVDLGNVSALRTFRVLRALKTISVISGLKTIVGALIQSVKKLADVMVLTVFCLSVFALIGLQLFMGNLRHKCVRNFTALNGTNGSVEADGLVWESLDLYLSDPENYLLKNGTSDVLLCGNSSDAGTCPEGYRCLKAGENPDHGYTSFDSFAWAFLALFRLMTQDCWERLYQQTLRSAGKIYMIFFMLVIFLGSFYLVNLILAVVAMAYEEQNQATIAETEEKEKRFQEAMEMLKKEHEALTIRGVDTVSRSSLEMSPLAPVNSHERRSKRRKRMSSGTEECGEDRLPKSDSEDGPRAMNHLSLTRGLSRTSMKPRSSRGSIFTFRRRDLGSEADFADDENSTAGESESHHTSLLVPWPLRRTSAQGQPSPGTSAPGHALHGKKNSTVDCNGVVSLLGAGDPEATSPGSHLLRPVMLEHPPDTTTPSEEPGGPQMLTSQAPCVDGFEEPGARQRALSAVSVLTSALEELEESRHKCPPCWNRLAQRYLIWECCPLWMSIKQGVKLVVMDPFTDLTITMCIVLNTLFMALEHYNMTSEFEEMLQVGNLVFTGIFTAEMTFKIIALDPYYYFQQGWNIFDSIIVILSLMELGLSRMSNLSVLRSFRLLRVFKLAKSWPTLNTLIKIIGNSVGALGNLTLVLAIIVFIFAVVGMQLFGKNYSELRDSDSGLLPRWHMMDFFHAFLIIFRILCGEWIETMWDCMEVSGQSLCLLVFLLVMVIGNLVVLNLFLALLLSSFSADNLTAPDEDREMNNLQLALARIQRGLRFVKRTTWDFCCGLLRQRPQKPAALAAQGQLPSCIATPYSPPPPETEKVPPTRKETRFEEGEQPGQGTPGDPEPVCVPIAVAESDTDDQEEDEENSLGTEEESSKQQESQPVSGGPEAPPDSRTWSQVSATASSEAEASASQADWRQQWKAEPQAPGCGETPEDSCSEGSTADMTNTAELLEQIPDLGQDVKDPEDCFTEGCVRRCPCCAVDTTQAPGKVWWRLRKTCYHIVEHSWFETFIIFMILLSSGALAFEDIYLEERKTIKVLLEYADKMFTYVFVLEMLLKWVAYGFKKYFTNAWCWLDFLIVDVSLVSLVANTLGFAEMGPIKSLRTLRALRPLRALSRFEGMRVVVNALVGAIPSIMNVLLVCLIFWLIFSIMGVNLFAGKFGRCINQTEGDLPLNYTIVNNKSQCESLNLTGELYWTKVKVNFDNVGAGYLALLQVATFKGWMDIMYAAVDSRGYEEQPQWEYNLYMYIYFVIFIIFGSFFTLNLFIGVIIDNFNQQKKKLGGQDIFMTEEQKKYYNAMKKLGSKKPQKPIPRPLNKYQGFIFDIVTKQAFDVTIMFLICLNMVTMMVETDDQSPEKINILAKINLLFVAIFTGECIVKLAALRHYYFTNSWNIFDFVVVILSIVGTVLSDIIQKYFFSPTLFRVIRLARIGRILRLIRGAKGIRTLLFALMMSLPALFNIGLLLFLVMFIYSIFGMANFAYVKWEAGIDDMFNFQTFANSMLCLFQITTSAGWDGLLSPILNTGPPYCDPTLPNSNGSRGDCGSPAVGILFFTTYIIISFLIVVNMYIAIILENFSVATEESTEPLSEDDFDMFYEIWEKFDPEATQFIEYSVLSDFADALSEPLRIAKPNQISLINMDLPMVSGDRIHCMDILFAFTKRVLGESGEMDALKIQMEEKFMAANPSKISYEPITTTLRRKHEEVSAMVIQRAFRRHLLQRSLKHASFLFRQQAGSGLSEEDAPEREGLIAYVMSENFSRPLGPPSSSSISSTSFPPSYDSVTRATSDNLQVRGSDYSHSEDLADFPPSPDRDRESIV
Outline: as §1

| Structure (SMILES) | IC50 [1] [nM] | ratio of Nav 1.5:Nav 1.7 potency [2] |
| --- | --- | --- |
| C[C@H](c1cccc(C#CC2(N)CC2)c1)n1c(=O)oc2cc(S(=O)(=O)Nc3cccc(F)n3)c(F)cc21 [Ex21-12, 3-[(1R)-1-{3-[(1-aminocyclopropyl)ethynyl]phenyl}ethyl]-5-fluoro-N-(6-fluoropyridin-2-yl)-2-oxo-2,3-dihydro-1,3-benzoxazole-6-sulfonamide] | 258 | 116 |
| C[C@H](c1cccc(C#CCN2CCC2)c1)n1c(=O)oc2cc(S(=O)(=O)Nc3cccc(F)n3)c(F)cc21 [Ex21-13, 3-[(1R)-1-{3-[3-(azetidin-1-yl)prop-1-yn-1-yl]phenyl}ethyl]-5-fluoro-N-(6-fluoropyridin-2-yl)-2-oxo-2,3-dihydro-1,3-benzoxazole-6-sulfonamide] | 116 | 258 |
| C[C@H](c1cccc(C#CCN2CCN(C)CC2)c1)n1c(=O)oc2cc(S(=O)(=O)Nc3cccc(F)n3)c(F)cc21 [Ex21-14, 5-fluoro-N-(6-fluoropyridin-2-yl)-3-[(1R)-1-{3-[3-(4-methylpiperazin-1-yl)prop-1-yn-1-yl]phenyl}ethyl]-2-oxo-2,3-dihydro-1,3-benzoxazole-6-sulfonamide] | 234 | 134 |
| CCN(CC)CC#Cc1cccc([C@@H](C)n2c(=O)oc3cc(S(=O)(=O)Nc4cccc(F)n4)c(F)cc32)c1 [Ex21-15, 3-[(1R)-1-{3-[3-(diethylamino)prop-1-yn-1-yl]phenyl}ethyl]-5-fluoro-N-(6-fluoropyridin-2-yl)-2-oxo-2,3-dihydro-1,3-benzoxazole-6-sulfonamide] | 516 | 58 |
| C[C@H](c1cccc(C#C[C@@H]2CCCC[C@@H]2N)c1)n1c(=O)oc2cc(S(=O)(=O)Nc3cccc(F)n3)c(F)cc21 [Ex21-17, 3-[(1R)-1-(3-{[(1S,2S)-2-aminocyclohexyl]ethynyl}phenyl)ethyl]-5-fluoro-N-(6-fluoropyridin-2-yl)-2-oxo-2,3-dihydro-1,3-benzoxazole-6-sulfonamide] | 68 | 41 |
| C[C@H](c1cccc(C#CC2CCCC2N)c1)n1c(=O)oc2cc(S(=O)(=O)Nc3cccc(F)n3)c(F)cc21 (stereo partly drawn) [Ex21-18, 3-[(1R)-1-{3-[(2-aminocyclopentyl)ethynyl]phenyl}ethyl]-5-fluoro-N-(6-fluoropyridin-2-yl)-2-oxo-2,3-dihydro-1,3-benzoxazole-6-sulfonamide] | 118 | 64 |
| Cc1cc2c(cc1S(=O)(=O)Nc1cccc(F)n1)oc(=O)n2[C@H](C)c1cccc(C#CCN2CCC2)c1 [Ex21-20, 3-[(1R)-1-{3-[3-(azetidin-1-yl)prop-1-yn-l-yl]phenyl}ethyl]-N-(6-fluoropyridin-2-yl)-5-methyl-2-oxo-2,3-dihydro-1,3-benzoxazole-6-sulfonamide] | 200 | 30 |
| C[C@H](c1cccc(C#CCN)c1)n1c(=O)oc2cc(S(=O)(=O)Nc3cccc(F)n3)c(F)cc21 [Ex21-21, 3-{(1R)-1-[3-(3-aminoprop-1-yn-1-yl)phenyl]ethyl}-5-fluoro-N-(6-fluoropyridin-2-yl)-2-oxo-2,3-dihydro-1,3-benzoxazole-6-sulfonamide] | 155 | 193 |
| Cc1c(C#CCN)cccc1[C@@H](C)n1c(=O)oc2cc(S(=O)(=O)Nc3cccc(F)n3)c(F)cc21 [Ex21-22, 3-{(1R)-1-[3-(3-aminoprop-1-yn-1-yl)-2-methylphenyl]ethyl}-5-fluoro-N-(6-fluoropyridin-2-yl)-2-oxo-2,3-dihydro-1,3-benzoxazole-6-sulfonamide] | 136 | 220 |
| Cc1cc2c(cc1S(=O)(=O)Nc1cccc(F)n1)oc(=O)n2[C@H](C)c1cccc(C#CCN)c1 [Ex21-23, 3-{(1R)-1-[3-(3-aminoprop-1-yn-1-yl)phenyl]ethyl}-N-(6-fluoropyridin-2-yl)-5-methyl-2-oxo-2,3-dihydro-1,3-benzoxazole-6-sulfonamide] | 90 | 251 |
| Cc1cc2c(cc1S(=O)(=O)Nc1cccc(F)n1)oc(=O)n2[C@H](C)c1cccc(C#CCN)c1C [Ex21-24, 3-{(1R)-1-[3-(3-aminoprop-1-yn-1-yl)-2-methylphenyl]ethyl}-N-(6-fluoropyridin-2-yl)-5-methyl-2-oxo-2,3-dihydro-1,3-benzoxazole-6-sulfonamide] | 102 | 240 |
| Cc1cc2c(cc1S(=O)(=O)Nc1cccc(F)n1)oc(=O)n2[C@H](C)c1cccc(C)c1C#C[C@@H]1CCCC[C@@H]1N [Ex21-25, 3-[(1R)-1-(2-{[(1S,2S)-2-aminocyclohexyl]-ethynyl}-3-methylphenyl)ethyl]-N-(6-fluoropyridin-2-yl)-5-methyl-2-oxo-2,3-dihydro-1,3-benzoxazole-6-sulfonamide] | 9 | 167 |
| Cc1cc2c(cc1S(=O)(=O)Nc1cccc(F)n1)oc(=O)n2[C@H](C)c1cccc(C)c1C#C[C@H]1CCCC[C@H]1N [Ex21-26, 3-[(1R)-1-(2-{[(1R,2R)-2-aminocyclohexyl]-ethynyl}-3-methylphenyl)ethyl]-N-(6-fluoropyridin-2-yl)-5-methyl-2-oxo-2,3-dihydro-1,3-benzoxazole-6-sulfonamide] | 16 | 192 |
| Cc1cccc([C@@H](C)n2c(=O)oc3cc(S(=O)(=O)Nc4cccc(F)n4)c(F)cc32)c1C#C[C@@H]1CCCC[C@@H]1N [Ex21-27, 3-[(1R)-1-(2-{[(1S,2S)-2-aminocyclohexyl]-ethynyl}-3-methylphenyl)ethyl]-5-fluoro-N-(6-fluoropyridin-2-yl)-2-oxo-2,3-dihydro-1,3-benzoxazole-6-sulfonamide] | 32 | 476 |
| C[C@H](c1cccc(CCCN)c1)n1c(=O)oc2cc(S(=O)(=O)Nc3cccc(F)n3)c(F)cc21 [Ex22-1, 3-{(1R)-1-[3-(3-aminopropyl)phenyl]ethyl}-5-fluoro-N-(6-fluoropyridin-2-yl)-2-oxo-2,3-dihydro-1,3-benzoxazole-6-sulfonamide] | 55 | 380 |
| Cc1cc2c(cc1S(=O)(=O)Nc1cccc(F)n1)oc(=O)n2[C@H](C)c1cccc(CCCN)c1 [Ex22-2, 3-{(1R)-1-[3-(3-amino-propyl)phenyl]ethyl}-N-(6-fluoropyridin-2-yl)-5-methyl-2-oxo-2,3-dihydro-1,3-benzoxazole-6-sulfonamide] | 70 | 305 |
| Cc1c(CCCN)cccc1[C@@H](C)n1c(=O)oc2cc(S(=O)(=O)Nc3cccc(F)n3)c(F)cc21 [Ex22-3, 3-{(1R)-1-[3-(3-amino-propyl)-2-methylphenyl]ethyl}-5-fluoro-N-(6-fluoropyridin-2-yl)-2-oxo-2,3-dihydro-1,3-benzoxazole-6-sulfonamide] | 101 | 297 |
| C[C@H](c1cccc(CCCN2CCC2)c1)n1c(=O)oc2cc(S(=O)(=O)Nc3cccc(F)n3)c(F)cc21 [Ex22-4, 3-[(1R)-1-{3-[3-(azetidin-1-yl)propyl]phenyl}ethyl]-5-fluoro-N-(6-fluoro-pyridin-2-yl)-2-oxo-2,3-dihydro-1,3-benzoxazole-6-sulfonamide] | 169 | 178 |
| C[C@H](c1ccccc1N1CCNCC1)n1c(=O)oc2cc(S(=O)(=O)Nc3cccc(F)n3)c(F)cc21 [Ex23-1, 5-fluoro-N-(6-fluoropyridin-2-yl)-2-oxo-3-{(1R)-1-[2-(piperazin-1-yl)phenyl]ethyl}-2,3-dihydro-1,3-benzoxazole-6-sulfonamide] | 150 | 200 |
| Cc1cc2c(cc1S(=O)(=O)Nc1cccc(F)n1)oc(=O)n2[C@H](C)c1ccccc1N1CCNCC1 [Ex23-2, N-(6-fluoropyridin-2-yl)-5-methyl-2-oxo-3-{(1R)-1-[2-(piperazin-1-yl)phenyl]ethyl}-2,3-dihydro-1,3-benzoxazole-6-sulfonamide] | 74 | 405 |
